Assay results as given in ChEMBL document CHEMBL3232855, “The discovery of N-((2H-tetrazol-5-yl)methyl)-4-((R)-1-((5r,8R)-8-(tert-butyl)-3-(3,5-dichlorophenyl)-2-oxo-1,4-diazaspiro[4.5]dec-3-en-1-yl)-4,4-dimethylpentyl)benzamide (SCH 900822): a potent and selective glucagon receptor antagonist” (J Med Chem, 2014).

Experiments:
Glucagon receptor [1] = target: T1, Glucagon receptor (Homo sapiens, UniProt P47871); assay: Antagonist activity at human GCGR expressed in CHO cells assessed as inhibition of glucagon-stimulated cAMP production preincubated for 30 mins followed by glucagon induction measured after 45 mins by LANCE assay; assay type: functional, cell-based
T1 sequence (P47871 whole entry): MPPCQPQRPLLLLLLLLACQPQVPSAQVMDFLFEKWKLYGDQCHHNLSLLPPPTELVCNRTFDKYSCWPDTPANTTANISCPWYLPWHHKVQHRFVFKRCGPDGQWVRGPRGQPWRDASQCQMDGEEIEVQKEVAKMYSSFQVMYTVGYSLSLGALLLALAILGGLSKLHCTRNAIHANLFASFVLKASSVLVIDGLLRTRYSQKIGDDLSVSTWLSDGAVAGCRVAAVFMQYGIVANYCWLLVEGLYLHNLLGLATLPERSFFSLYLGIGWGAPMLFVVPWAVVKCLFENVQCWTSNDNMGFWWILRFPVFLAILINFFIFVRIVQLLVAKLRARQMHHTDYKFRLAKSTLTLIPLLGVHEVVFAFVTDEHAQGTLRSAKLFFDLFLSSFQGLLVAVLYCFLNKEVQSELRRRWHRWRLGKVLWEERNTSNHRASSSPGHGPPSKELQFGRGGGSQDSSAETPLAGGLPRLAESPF

[2] = target: T2, Glucagon-like peptide 1 receptor (Homo sapiens, UniProt P43220); settings: CHO, at 10 µM
T2 sequence (P43220 whole entry): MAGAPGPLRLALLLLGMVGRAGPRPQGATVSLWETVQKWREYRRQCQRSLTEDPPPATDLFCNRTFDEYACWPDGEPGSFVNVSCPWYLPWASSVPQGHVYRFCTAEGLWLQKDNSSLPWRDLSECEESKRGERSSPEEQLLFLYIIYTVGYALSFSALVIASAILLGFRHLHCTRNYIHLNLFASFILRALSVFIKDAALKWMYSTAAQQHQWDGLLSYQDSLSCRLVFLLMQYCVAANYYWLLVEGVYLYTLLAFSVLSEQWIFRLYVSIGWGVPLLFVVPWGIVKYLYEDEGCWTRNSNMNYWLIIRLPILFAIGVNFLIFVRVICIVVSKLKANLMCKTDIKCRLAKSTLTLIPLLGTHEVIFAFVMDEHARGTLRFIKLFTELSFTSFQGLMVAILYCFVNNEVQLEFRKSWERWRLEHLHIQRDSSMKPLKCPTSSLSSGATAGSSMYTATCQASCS
Description: Antagonist activity at human GLP-1R expressed in CHO cells assessed as inhibition of GLP-1-stimulated cAMP production at 10 uM preincubated for 30 mins followed by GLP-1 induction measured after 45 mins by LANCE assay relative to control

Glucagon receptor [3] = target: Glucagon receptor (Mus musculus, UniProt Q61606); assay type: cell membranes, Liver, Membrane
Glucagon receptor (Mus musculus, UniProt Q61606), sequence (Q61606 whole entry): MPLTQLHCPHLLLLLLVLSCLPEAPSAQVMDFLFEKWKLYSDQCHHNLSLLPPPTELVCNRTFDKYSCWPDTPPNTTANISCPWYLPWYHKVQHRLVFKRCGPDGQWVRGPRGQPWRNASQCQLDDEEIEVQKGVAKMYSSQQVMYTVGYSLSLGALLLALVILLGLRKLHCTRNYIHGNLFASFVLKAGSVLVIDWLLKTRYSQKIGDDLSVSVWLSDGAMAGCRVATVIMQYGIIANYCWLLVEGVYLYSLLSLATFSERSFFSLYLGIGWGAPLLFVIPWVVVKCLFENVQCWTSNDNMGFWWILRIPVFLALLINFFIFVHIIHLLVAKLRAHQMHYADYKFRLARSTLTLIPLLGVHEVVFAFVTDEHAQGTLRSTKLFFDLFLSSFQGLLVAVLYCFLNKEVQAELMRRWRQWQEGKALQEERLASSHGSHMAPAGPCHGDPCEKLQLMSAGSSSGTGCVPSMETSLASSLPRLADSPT
Description: Displacement of [125I]-glucagon from GCGR in mouse liver membranes after 60 mins by scintillation counting analysis

Glucagon receptor [4] = target: T1, Glucagon receptor; assay: biochemical; assay type: cell-based, CHO
Description: Displacement of [125I]-glucagon from recombinant human GCGR expressed in CHO cells after 60 mins by scintillation counting analysis

Homo sapiens [5] = assay: Antidiabetic activity in human assessed as inhibition of exogenous glucagon-stimulated glucose excursion at 200 mg, po qd relative to control; assay type: functional
Homo sapiens [6] = assay: Antidiabetic activity in human assessed as inhibition of exogenous glucagon-stimulated glucose excursion at 1000 mg, po qd relative to control; assay type: functional
[7] = target: T2, Glucagon-like peptide 1 receptor; assay: Antagonist activity at human GLP-1R expressed in CHO cells assessed as inhibition of GLP-1-stimulated cAMP production preincubated for 30 mins followed by GLP-1 induction measured after 45 mins by LANCE assay; assay type: functional, cell-based

Row | SMILES | IC50 (Glucagon receptor [1]) [µM] | inhibition [2] [%] | IC50 (Glucagon receptor [3]) [µM] | IC50 (Glucagon receptor [4]) [µM] | inhibition (INH) (Homo sapiens [5]) [%] | inhibition (INH) (Homo sapiens [6]) [%] | IC50 [7] [µM]
1 | CC(C)(C)[C@H]1CC[C@]2(CC1)N=C(c1cccc(C(F)(F)F)c1)C(=O)N2Cc1ccc(C(=O)NCCC(=O)O)cc1 | 0.51 | < 50 | 10 | – | – | – | –
2 | CC(C)(C)[C@H]1CC[C@]2(CC1)N=C(c1ccc(OC(F)(F)F)cc1)C(=O)N2Cc1ccc(C(=O)NCCC(=O)O)cc1 | 1.9 | < 50 | – | – | – | – | –
3 | CC(C)(C)[C@H]1CC[C@]2(CC1)N=C(c1ccc(Cl)cc1)C(=O)N2Cc1ccc(C(=O)NCCC(=O)O)cc1 | 1.4 | < 50 | > 10 | 0.94 | – | – | –
4 | CCCc1c(C(C)C)cc(C(C)C)c(C(C)O)c1-c1ccc(F)cc1 (single isomer, unassigned; (+)) | – | – | – | – | 59 | 100 | –
5 | COc1ccc2cc(-c3cc(-c4cc(Cl)cc(Cl)c4)nn3[C@@H](C)c3ccc(C(=O)NCCC(=O)O)cc3)ccc2c1 [MK-0893] | – | – | – | – | 59 | 100 | –
6 | CC(C)(C)[C@H]1CC[C@]2(CC1)N=C(c1ccccc1Cl)C(=O)N2Cc1ccc(C(=O)NCCC(=O)O)cc1 | 6.8 | < 50 | – | – | – | – | –
7 | CC(C)(C)[C@H]1CC[C@]2(CC1)N=C(c1ccc(F)cc1)C(=O)N2Cc1ccc(C(=O)NCCC(=O)O)cc1 | 1.9 | < 50 | – | – | – | – | –
8 | CC(C)(C)[C@H]1CC[C@]2(CC1)N=C(c1ccc(Cl)c(Cl)c1)C(=O)N2Cc1ccc(C(=O)NCCC(=O)O)cc1 | 1.6 | < 50 | – | – | – | – | –
9 | CC(C)(C)[C@H]1CC[C@]2(CC1)N=C(c1ccccc1)C(=O)N2Cc1ccc(C(=O)NCCC(=O)O)cc1 | 3.2 | < 50 | – | – | – | – | –
10 | CC(C)(C)[C@H]1CC[C@]2(CC1)N=C(c1ccccc1F)C(=O)N2Cc1ccc(C(=O)NCCC(=O)O)cc1 | 0.73 | < 50 | > 10 | > 10 | – | – | –
11 | CC(C)(C)[C@H]1CC[C@]2(CC1)N=C(c1cc(Cl)cc(Cl)c1)C(=O)N2Cc1ccc(C(=O)NCCC(=O)O)cc1 | 0.29 | < 50 | > 10 | 0.52 | – | – | –
12 | Cc1cccc(C2=N[C@]3(CC[C@@H](C(C)(C)C)CC3)N([C@H](C)c3ccc(C(=O)NCCC(=O)O)cc3)C2=O)c1 | 0.49 | – | 1.7 | 0.15 | – | – | > 10
13 | CC(C)(C)[C@H]1CC[C@]2(CC1)N=C(c1ccc(C(F)(F)F)cc1)C(=O)N2Cc1ccc(C(=O)NCCC(=O)O)cc1 | 0.8 | < 50 | 9.6 | – | – | – | –
14 | C[C@H](CC(=O)O)NC(=O)c1ccc([C@@H](CCC(C)(C)C)N2C(=O)C(c3cc(Cl)cc(Cl)c3)=N[C@]23CC[C@@H](C(C)(C)C)CC3)cc1 | 0.53 | – | 6.1 | 0.12 | – | – | > 10
15 | CC(C)(C)CC[C@H](c1ccc(C(=O)NCc2nn[nH]n2)cc1)N1C(=O)C(c2cnccc2C(F)(F)F)=N[C@]12CC[C@@H](C(C)(C)C)CC2 | 1.2 | – | 0.096 | 0.022 | – | – | > 10
16 | C[C@H](c1ccc(C(=O)NCCC(=O)O)cc1)N1C(=O)C(c2ccc(OC(F)(F)F)cc2)=N[C@]12CC[C@@H](C(C)(C)C)CC2 | 1.1 | – | 8 | 0.067 | – | – | > 10
17 | CC(C)(C)[C@H]1CC[C@]2(CC1)N=C(c1cccc(Cl)c1)C(=O)N2Cc1ccc(C(=O)NCCC(=O)O)cc1 | 0.77 | < 50 | > 10 | 0.77 | – | – | –
18 | C[C@H](c1ccc(C(=O)NCc2nnn[nH]2)cc1)N1C(=O)C(c2cc(Cl)cc(Cl)c2)=N[C@]12CC[C@@H](C(C)(C)C)CC2 | 0.18 | 9 | 0.4 | 0.13 | – | – | > 10
